The source of these data is patent US9255101B2 (BIOPROJECT, priority 2012, dated 2016).

Structures can show the parent of a compound that is named as a salt. A value given as a limit tells only on which side of the number the result lay.
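Further: radioligand displacement of a [3H]-labelled ligand from membranes of CHO cells stably expressing human H4 receptor, bound radioactivity counted on filters by liquid scintillation.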

The experiment deals with human H4 receptor (Homo sapiens, UniProt Q9H3N8). Nature of the experiment: biochemical.
Sequence of human H4 receptor (Q9H3N8 whole entry): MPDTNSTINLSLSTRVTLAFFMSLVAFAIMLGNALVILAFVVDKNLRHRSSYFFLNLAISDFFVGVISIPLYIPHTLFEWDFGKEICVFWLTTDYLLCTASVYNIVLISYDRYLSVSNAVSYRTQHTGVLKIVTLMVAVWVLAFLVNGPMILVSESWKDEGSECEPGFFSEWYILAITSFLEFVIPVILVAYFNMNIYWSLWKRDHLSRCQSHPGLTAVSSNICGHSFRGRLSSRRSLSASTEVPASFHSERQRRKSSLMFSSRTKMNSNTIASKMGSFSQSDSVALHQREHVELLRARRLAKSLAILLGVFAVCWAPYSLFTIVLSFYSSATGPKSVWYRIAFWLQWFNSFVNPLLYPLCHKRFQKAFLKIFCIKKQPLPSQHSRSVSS
Turning to `COC(=O)CSc1ccc(-c2nc3n(c2C)CCc2ccccc2C3OC2CCN(C)CC2)cc1` (centres unmarked) [Example 165, {4-[1-methyl-4-(1-methylpiperidin-4-yloxy)-9,10-dihydro-4H-3,10a-diaza-benzo[f]azulen-2-yl]-phenylsulfanyl}-acetic acid methyl ester oxalate], the inhibition constant (Ki) (in general, the dissociation constant of the complex between target and ligand, obtained from inhibition or displacement) was less than 0.03 µM. Take `Cc1c(-c2ccc(SC(C)(C)C)cc2)nc2n1CCc1ccccc1C2OC1CCN(C)CC1` (centres unmarked) [Example 166, 2-(4-tert-butylsulfanylphenyl)-1-methyl-4-(1-methylpiperidin-4-yloxy)-9,10-dihydro-4H-3,10a-diaza-benzo[f]azulene oxalate]: the Ki is less than 0.03 µM. The figure for `Cc1c(-c2ccc(C3=CCCC3)cc2)nc2n1CCc1ccccc1C2OC1CCN(C)CC1` (centres unmarked) [Example 169, 2-(4-cyclopent-1-enylphenyl)-1-methyl-4-(1-methylpiperidin-4-yloxy)-9,10-dihydro-4H-3,10a-diaza-benzo[f]azulene] is less than 0.03 µM. Molecule `Cc1c(-c2ccc(C3=CCCCC3)cc2)nc2n1CCc1ccccc1C2OC1CCN(C)CC1` (centres unmarked) [Example 170, 2-(4-cyclohex-1-enylphenyl)-1-methyl-4-(1-methylpiperidin-4-yloxy)-9,10-dihydro-4H-3,10a-diaza-benzo[f]azulene] registered an inhibitory constant (Ki) of less than 0.03 µM. Molecule `Cc1c(-c2ccc(C3=CCCCCC3)cc2)nc2n1CCc1ccccc1C2OC1CCN(C)CC1` (centres unmarked) [Example 171, 2-(4-cyclohept-1-enylphenyl)-1-methyl-4-(1-methylpiperidin-4-yloxy)-9,10-dihydro-4H-3,10a-diaza-benzo[f]azulene] had a Ki of less than 0.03 µM.

In turn, `Cc1c(-c2ccc(NC(=O)OC3CCCC3)cc2)nc2n1CCc1ccccc1C2OC1CCN(C)CC1` (centres unmarked) [Example 172, {4-[1-methyl-4-(1-methylpiperidin-4-yloxy)-9,10-dihydro-4H-3,10a-diaza-benzo[f]azulen-2-yl]-phenyl}-carbamic acid cyclopentyl ester] came in with a Ki of less than 0.03 µM. Next, `Cc1c(-c2ccc(N)cc2)nc2n1CCc1ccccc1C2OC1CCN(C)CC1` (centres unmarked) [Example 173, 4-[1-methyl-4-(1-methylpiperidin-4-yloxy)-9,10-dihydro-4H-3,10a-diaza-benzo[f]azulen-2-yl]-phenylamine]: less than 0.3 µM; `Cc1c(-c2ccc(NC(=O)OCC(C)C)cc2)nc2n1CCc1ccccc1C2OC1CCN(C)CC1` (centres unmarked) [Example 174, {4-[1-Methyl-4-(1-methyl-piperidin-4-yloxy)-9,10-dihydro-4H-3,10a-diaza-benzo[f]azulen-2-yl]-phenyl}-carbamic acid isobutyl ester]: less than 0.03 µM. Next, `Cc1c(-c2ccc(NC(=O)OC(C)(C)C(Cl)(Cl)Cl)cc2)nc2n1CCc1ccccc1C2OC1CCN(C)CC1` (centres unmarked) [Example 175, {4-[1-methyl-4-(1-methylpiperidin-4-yloxy)-9,10-dihydro-4H-3,10a-diaza-benzo[f]azulen-2-yl]-phenyl}-carbamic acid 2,2,2-trichloro-1,1-dimethyl-ethyl ester]: less than 0.03 µM; `Cc1c(-c2ccc(N3C(=O)OCC3Cc3ccccc3)cc2)nc2n1CCc1ccccc1C2OC1CCN(C)CC1` (centres unmarked) [Example 176, 4-benzyl-3-{4-[1-methyl-4-(1-methylpiperidin-4-yloxy)-9,10-dihydro-4H-3,10a-diaza-benzo[f]azulen-2-yl]-phenyl}-oxazolidin-2-one]: less than 0.03 µM. Next, `Cc1c(-c2ccc(C3CCN(C(=O)OC(C)(C)C)CC3)cc2)nc2n1CCc1ccccc1C2OC1CCN(C)CC1` (centres unmarked) [Example 177, 4-{4-[1-methyl-4-(1-methylpiperidin-4-yloxy)-9,10-dihydro-4H-3,10a-diaza-benzo[f]azulen-2-yl]-phenyl}-piperidine-1-carboxylic acid tert-butyl ester]: less than 0.03 µM; `Cc1c(-c2ccc(N3CCN(C(C)C)C3=O)cc2)nc2n1CCc1ccccc1C2OC1CCN(C)CC1` (centres unmarked) [Example 178, 1-isopropyl-3-{4-[1-methyl-4-(1-methylpiperidin-4-yloxy)-9,10-dihydro-4H-3,10a-diaza-benzo[f]azulen-2-yl]-phenyl}-imidazolidin-2-one]: less than 0.03 µM; `CN1CCC(OC2c3ccccc3CCn3cc(-c4ccccc4CO)nc32)CC1` (centres unmarked) [Example 179, {2-[4-(1-methylpiperidin-4-yloxy)-9,10-dihydro-4H-3,10a-diaza-benzo[f]azulen-2-yl]-phenyl}-methanol oxalate]: less than 0.3 µM. In turn, `CN(C)CCOc1ccc(-c2cn3c(n2)C(OC2CCN(C)CC2)c2ccccc2CC3)cc1` (centres unmarked) [Example 180, dimethyl-(2-{4-[4-(1-methylpiperidin-4-yloxy)-9,10-dihydro-4H-3,10a-diaza-benzo[f]azulen-2-yl]-phenoxy}-ethyl)-amine] displayed a Ki of less than 0.3 µM. The figure for `CN1CCC(OC2c3ccccc3CCn3cc(-c4ccc(CN5CCOC5=O)cc4)nc32)CC1` (centres unmarked) [Example 181, 3-{4-[4-(1-methylpiperidin-4-yloxy)-9,10-dihydro-4H-3,10a-diaza-benzo[f]azulen-2-yl]-benzyl}-oxazolidin-2-one] is less than 0.3 µM. Next, `CN1CCC(OC2c3ccccc3CCn3cc(-c4ccc(CN(C)C(=O)OC(C)(C)C)cc4)nc32)CC1` (centres unmarked) [Example 182, methyl-{4-[4-(1-methylpiperidin-4-yloxy)-9,10-dihydro-4H-3,10a-diaza-benzo[f]azulen-2-yl]benzyl}-carbamic acid tert-butyl ester]: less than 0.3 µM; `C=CCOc1ccc(-c2cn3c(n2)C(OC2CCN(C)CC2)c2ccccc2CC3)cc1` (centres unmarked) [Example 183, 2-(4-allyloxyphenyl)-4-(1-methylpiperidin-4-yloxy)-9,10-dihydro-4H-3,10a-diaza-benzo[f]azulene]: less than 0.03 µM; `CN1CCC(OC2c3ccccc3CCn3cc(-c4ccc(CN5CCCC5=O)cc4)nc32)CC1` (centres unmarked) [Example 184, 1-{4-[4-(1-methylpiperidin-4-yloxy)-9,10-dihydro-4H-3,10a-diaza-benzo[f]azulen-2-yl]benzyl}-pyrrolidin-2-one]: less than 1 µM.

As for `CN1CCC(OC2c3ccccc3CCn3cc(-c4ccc(CN5CCCCC5=O)cc4)nc32)CC1` (centres unmarked) [Example 185, 1-{4-[4-(1-methylpiperidin-4-yloxy)-9,10-dihydro-4H-3,10a-diaza-benzo[f]azulen-2-yl]benzyl}-piperidin-2-one], the Ki is less than 0.3 µM. `CC(C)SCc1ccc(-c2cn3c(n2)C(OC2CCN(C)CC2)c2ccccc2CC3)cc1` (centres unmarked) [Example 186, 2-(4-isopropylsulfanylmethylphenyl)-4-(1-methylpiperidin-4-yloxy)-9,10-dihydro-4H-3,10a-diaza-benzo[f]azulene] displayed a Ki of less than 0.3 µM. `CN1CCC(OC2c3ccccc3CCn3cc(-c4ccc(CCSC(C)(C)C)cc4)nc32)CC1` (centres unmarked) [Example 189, 2-[4-(2-tert-butylsulfanylethyl)-phenyl]-4-(1-methylpiperidin-4-yloxy)-9,10-dihydro-4H-3,10a-diaza-benzo[f]azulene] yielded an inhibition constant Ki of less than 0.3 µM. Next, `CN1CCC(OC2c3ccccc3CCn3cc(-c4ccccc4[N+](=O)[O-])nc32)CC1` (centres unmarked) [Example 190, 4-(1-methylpiperidin-4-yloxy)-2-(2-nitrophenyl)-9,10-dihydro-4H-3,10a-diaza-benzo[f]azulene]: less than 0.3 µM; `CN1CCC(OC2c3ccccc3CCn3cc(-c4ccc(CN5CCN(C(C)(C)C)C5=O)cc4)nc32)CC1` (centres unmarked) [Example 191, 1-tertbutyl-3-{4-[4-(1-methylpiperidin-4-yloxy)-9,10-dihydro-4H-3,10a-diaza-benzo[f]azulen-2-yl]benzyl}-imidazolidin-2-one]: less than 0.3 µM. As to `CN1CCC(OC2c3ccccc3CCn3cc(-c4ccc(CCO)cc4)nc32)CC1` (centres unmarked) [Example 192, 2-{4-[4-(1-methylpiperidin-4-yloxy)-9,10-dihydro-4H-3,10a-diaza-benzo[f]azulen-2-yl]-phenyl}-ethanol], the inhibition constant (Ki) was less than 0.3 µM. Next, `CN1CCC(OC2c3ccccc3CCn3cc(-c4ccc(OCC5CC5)cc4)nc32)CC1` (centres unmarked) [Example 193, 2-(4-cyclopropylmethoxyphenyl)-4-(1-methylpiperidin-4-yloxy)-9,10-dihydro-4H-3,10a-diaza-benzo[f]azulene]: less than 0.3 µM; `CN1CCC(OC2c3ccccc3CCn3cc(-c4ccc(CCNC(=O)OC(C)(C)C)cc4)nc32)CC1` (centres unmarked) [Example 196]: less than 0.3 µM. Turning to `CN1CCC(OC2c3ccccc3CCn3cc(-c4ccc(CCN(C)C(=O)OC(C)(C)C)cc4)nc32)CC1` (centres unmarked) [Example 197, methyl-(2-{4-[4-(1-methylpiperidin-4-yloxy)-9,10-dihydro-4H-3,10a-diaza-benzo[f]azulen-2-yl]-phenyl}-ethyl)-carbamic acid tert-butyl ester], the Ki is less than 0.03 µM. In the case of `CN1CCC(OC2c3ccccc3CCn3cc(-c4ccc(CN5C(=O)OC(C)(C)C5=O)cc4)nc32)CC1` (centres unmarked) [Example 198, 5,5-dimethyl-3-{4-[4-(1-methylpiperidin-4-yloxy)-9,10-dihydro-4H-3,10a-diaza-benzo[f]azulen-2-yl]benzyl}-oxazolidine-2,4-dione], the Ki was less than 0.3 µM.

On to `CN1CCC(OC2c3ccccc3CCn3cc(-c4ccc(CSCCNC(=O)OC(C)(C)C)cc4)nc32)CC1` (centres unmarked) [Example 199, (2-{4-[4-(1-methylpiperidin-4-yloxy)-9,10-dihydro-4H-3,10a-diaza-benzo[f]azulen-2-yl]benzylsulfanyl}-ethyl)-carbamic acid tert-butyl ester], for which the Ki was less than 0.3 µM. Next, `CN1CCC(OC2c3ccccc3CCn3cc(-c4ccc(CCOC(=O)NC(C)(C)C)cc4)nc32)CC1` (centres unmarked) [Example 200, tert-butyl-carbamic acid 2-{4-[4-(1-methylpiperidin-4-yloxy)-9,10-dihydro-4H-3,10a-diaza-benzo[f]azulen-2-yl]-phenyl}-ethyl ester]: less than 0.3 µM; `CN1CCC(OC2c3ccccc3CCn3cc(C(C)(C)c4ccccc4)nc32)CC1` (centres unmarked) [Example 207, 2-(1-methyl-1-phenyl-ethyl)-4-(1-methylpiperidin-4-yloxy)-9,10-dihydro-4H-3,10a-diaza-benzo[f]azulene]: less than 1 µM; `Cc1c(-c2ccc(NC(=S)NC3CC3)cc2)nc2n1CCc1ccccc1C2OC1CCN(C)CC1` (centres unmarked) [Example 208, 1-cyclopropyl-3-{4-[1-methyl-4-(1-methylpiperidin-4-yloxy)-9,10-dihydro-4H-3,10a-diaza-benzo[f]azulen-2-yl]-phenyl}-thiourea]: less than 0.3 µM.
